16 molecules from US20240190880A1 (THE REGENTS OF THE UNIVERSITY OF MICHIGAN, priority 2021, published 2024) can be followed below.

SMILES strings stand for the structures. A value given as a limit tells only on which side of the number the result lay.

The target of one assay is T1, ER (Homo sapiens, UniProt P03372).
T1 construct: host or cells: T47D and MCF7 human breast cancer cells
T1 sequence (P03372 1-595): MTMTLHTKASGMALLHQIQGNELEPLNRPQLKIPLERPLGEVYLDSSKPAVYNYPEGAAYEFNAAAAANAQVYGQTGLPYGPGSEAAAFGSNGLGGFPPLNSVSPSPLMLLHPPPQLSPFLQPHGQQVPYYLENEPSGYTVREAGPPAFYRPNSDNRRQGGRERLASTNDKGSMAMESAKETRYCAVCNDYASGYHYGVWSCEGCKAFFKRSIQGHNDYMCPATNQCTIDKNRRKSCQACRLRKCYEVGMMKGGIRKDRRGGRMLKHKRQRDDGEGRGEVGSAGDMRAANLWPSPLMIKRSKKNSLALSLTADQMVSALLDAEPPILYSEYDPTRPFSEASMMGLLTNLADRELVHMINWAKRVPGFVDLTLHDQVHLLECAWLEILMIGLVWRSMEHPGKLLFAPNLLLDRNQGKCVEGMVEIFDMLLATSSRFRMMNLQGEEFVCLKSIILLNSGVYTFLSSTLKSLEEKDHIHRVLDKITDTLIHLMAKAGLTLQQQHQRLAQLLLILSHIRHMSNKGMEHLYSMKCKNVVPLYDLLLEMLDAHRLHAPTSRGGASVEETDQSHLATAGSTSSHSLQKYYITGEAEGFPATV
The assay is described as follows: ER degradation activity, in-cell western blot analysis in T47D cells. Type of assay: cell-based. Conditions: 16 hours, Table A does not say which cell line (T47D or MCF7), read-out: Potency (DC50). An outline of the steps:
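T47D cells cultured in DMEM with 10% FBS, treated with compounds (final 0.5% DMSO) for 16 h. ER level measured by in-cell western with anti-rabbit-680/anti-mouse-800 near-infrared detection. Relative ER percentage calculated against untreated and DMSO-treated wells set as 100%.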
In the case of `O=C1CCC(N2C(=O)c3cc4c(cc3C2=O)CN(C2CCN(CC3CCN(c5ccc([C@@H]6c7ccc(O)cc7CC[C@@H]6c6ccccc6)cc5)CC3)CC2)C4)C(=O)N1` (stereo partly drawn) [E 271, 2-(2,6-dioxopiperidin-3-yl)-6-(1-((1-(4-((1R,2S)-6-hydroxy-2-phenyl-1,2,3,4-tetrahydronaphthalen-1-yl)phenyl)piperidin-4-yl)methyl)piperidin-4-yl)-6,7-dihydropyrrolo[3,4-f]isoindole-1,3(2H,5H)-dione], the DC50 (as a rule, the concentration at which degradation of the target reaches its halfway point) is under 0.01 µM.
For the molecule `O=C1CCC(N2C(=O)c3cc4c(cc3C2=O)CN(CC2CN(C(=O)C3CN(c5ccc([C@@H]6c7ccc(O)cc7CC[C@@H]6c6ccccc6)cc5)C3)C2)C4)C(=O)N1` (stereo partly drawn) [E 200, 2-(2,6-dioxopiperidin-3-yl)-6-((1-(1-(4-((1R,2S)-6-hydroxy-2-phenyl-1,2,3,4-tetrahydronaphthalen-1-yl)phenyl)azetidine-3-carbonyl)azetidin-3-yl)methyl)-6,7-dihydropyrrolo[3,4-f]isoindole-1,3(2H,5H)-dione], the DC50 is over 0.1 µM.
Consider `C[C@@H]1Cc2c([nH]c3ccccc23)[C@@H](c2c(F)cc(C3CCC(C(=O)N4CC(CN5Cc6cc7c(cc6C5)C(=O)N(C5CCC(=O)NC5=O)C7=O)C4)CC3)cc2F)N1CC(F)F` (stereo partly drawn) [E250, 6-((1-(4-(4-((1R,3R)-2-(2,2-difluoroethyl)-3-methyl-2,3,4,9-tetrahydro-1H-pyrido[3,4-b]indol-1-yl)-3,5-difluorophenyl)cyclohexane-1-carbonyl)azetidin-3-yl)methyl)-2-(2,6-dioxopiperidin-3-yl)-6,7-dihydropyrrolo[3,4-f]isoindole-1,3(2H,5H)-dione], for which the DC50 was under 0.01 µM.
Take `C[C@@H]1Cc2cc(O)ccc2[C@@H](c2c(F)cc(N3CC4(CCN(C(=O)CN5Cc6cc7c(cc6C5)C(=O)N(C5CCC(=O)NC5=O)C7)CC4)C3)cc2F)N1CC(C)(F)F` (stereo partly drawn) [E 27, 3-(6-(2-(2-(4-((1S,3R)-2-(2,2-difluoropropyl)-6-hydroxy-3-methyl-1,2,3,4-tetrahydroisoquinolin-1-yl)-3,5-difluorophenyl)-2,7-diazaspiro[3.5]nonan-7-yl)-2-oxoethyl)-1-oxo-3,5,6,7-tetrahydropyrrolo[3,4-f]isoindol-2(1H)-yl)piperidine-2,6-dione]: the DC50 is over 0.1 µM.
On the same count and under the same terms, for `O=C1CCC(N2C(=O)c3cc4c(cc3C2=O)CN(CC(=O)N2CCC3(CC2)CN(c2ccc([C@@H]5c6ccc(O)cc6CC[C@@H]5c5ccc(F)cc5Cl)cc2)C3)C4)C(=O)N1` (mixture of isomers) [E 11, rac-6-(2-(2-(4-((1R,2S)-2-(2-chloro-4-fluorophenyl)-6-hydroxy-1,2,3,4-tetrahydronaphthalen-1-yl)phenyl)-2,7-diazaspiro[3.5]nonan-7-yl)-2-oxoethyl)-2-(2,6-dioxopiperidin-3-yl)-6,7-dihydropyrrolo[3,4-f]isoindole-1,3(2H,5H)-dione] the value was 0.01 to 0.1 µM; for `C[C@@H]1Cc2cc(O)ccc2[C@@H](c2c(F)cc(N3CCC4(CCN(C(=O)CN5Cc6cc7c(cc6C5)C(=O)N(C5CCC(=O)NC5=O)C7=O)CC4)CC3)cc2F)N1CC(F)(F)F` (stereo partly drawn) [E 225, 6-(2-(9-(3,5-difluoro-4-((1S,3R)-6-hydroxy-3-methyl-2-(2,2,2-trifluoroethyl)-1,2,3,4-tetrahydroisoquinolin-1-yl)phenyl)-3,9-diazaspiro[5.5]undecan-3-yl)-2-oxoethyl)-2-(2,6-dioxopiperidin-3-yl)-6,7-dihydropyrrolo[3,4-f]isoindole-1,3(2H,5H)-dione], over 0.1 µM; for `O=C1CCC(N2C(=O)c3cc4c(cc3C2=O)CN(CC(=O)N2CC3(CCN(c5ccc([C@@H]6c7ccc(O)cc7CC[C@@H]6c6ccccc6)cc5)CC3)C2)C4)C(=O)N1` (stereo partly drawn) [E 148, 2-(2,6-dioxopiperidin-3-yl)-6-(2-(7-(4-((1R,2S)-6-hydroxy-2-phenyl-1,2,3,4-tetrahydronaphthalen-1-yl)phenyl)-2,7-diazaspiro[3.5]nonan-2-yl)-2-oxoethyl)-6,7-dihydropyrrolo[3,4-f]isoindole-1,3(2H,5H)-dione], under 0.01 µM.
For the molecule `C[C@@H]1Cc2c([nH]c3ccccc23)[C@@H](c2c(F)cc(N3CCC4(CCN(CC(=O)N5Cc6cc7c(cc6C5)C(=O)N(C5CCC(=O)NC5=O)C7)CC4)C3)cc2F)N1CC(F)F` (stereo partly drawn) [E 108, 3-(6-(2-(2-(4-((1R,3R)-2-(2,2-difluoroethyl)-3-methyl-2,3,4,9-tetrahydro-1H-pyrido[3,4-b]indol-1-yl)-3,5-difluorophenyl)-2,8-diazaspiro[4.5]decan-8-yl)acetyl)-1-oxo-3,5,6,7-tetrahydropyrrolo[3,4-f]isoindol-2(1H)-yl)piperidine-2,6-dione], the DC50 is under 0.01 µM.
For `C[C@@H]1Cc2c([nH]c3ccccc23)[C@@H](c2c(F)cc(N3CCC(C(=O)N4CCC(N5Cc6cc7c(cc6C5)C(=O)N(C5CCC(=O)NC5=O)C7=O)CC4)CC3)cc2F)N1CC(C)(F)F` (stereo partly drawn) [E 252, 6-(1-(1-(4-((1R,3R)-2-(2,2-difluoropropyl)-3-methyl-2,3,4,9-tetrahydro-1H-pyrido[3,4-b]indol-1-yl)-3,5-difluorophenyl)piperidine-4-carbonyl)piperidin-4-yl)-2-(2,6-dioxopiperidin-3-yl)-6,7-dihydropyrrolo[3,4-f]isoindole-1,3(2H,5H)-dione], the DC50 was under 0.01 µM.
Take `O=C1CCC(N2C(=O)c3cc4c(cc3C2=O)CN(C(=O)CN2CCC3(CC2)CCN(c2ccc([C@@H]5c6ccc(O)cc6CC[C@@H]5c5ccc(F)cc5)cc2)C3)C4)C(=O)N1` (mixture of isomers) [E 152, Rac-2-(2,6-dioxopiperidin-3-yl)-6-(2-(2-(4-((1R,2S)-2-(4-fluorophenyl)-6-hydroxy-1,2,3,4-tetrahydronaphthalen-1-yl)phenyl)-2,8-diazaspiro[4.5]decan-8-yl)acetyl)-6,7-dihydropyrrolo[3,4-f]isoindole-1,3(2H,5H)-dione]: the DC50 was over 0.1 µM.
As for `O=C1CCC(N2C(=O)c3cc4c(cc3C2=O)CN(CC(=O)N2CCC3(CCN(c5ccc([C@@H]6c7ccc(O)cc7CC[C@@H]6c6ccccc6)cc5)CC3)C2)C4)C(=O)N1` (mixture of isomers) [E 7, rac-2-(2,6-dioxopiperidin-3-yl)-6-(2-(8-(4-((1R,2S)-6-hydroxy-2-phenyl-1,2,3,4-tetrahydronaphthalen-1-yl)phenyl)-2,8-diazaspiro[4.5]decan-2-yl)-2-oxoethyl)-6,7-dihydropyrrolo[3,4-f]isoindole-1,3(2H,5H)-dione], the DC50 lay within 0.01 to 0.1 µM.
Consider `O=C1CCC(N2C(=O)c3cc4c(cc3C2=O)CN(CC(=O)N2CCCC(Oc3ccc([C@@H]5c6ccc(O)cc6CC[C@@H]5c5ccccc5)cc3)C2)C4)C(=O)N1` (mixture of isomers) [E 21, Rac-2-(2,6-dioxopiperidin-3-yl)-6-(2-(3-(4-((1R,2S)-6-hydroxy-2-phenyl-1,2,3,4-tetrahydronaphthalen-1-yl)phenoxy)piperidin-1-yl)-2-oxoethyl)-6,7-dihydropyrrolo[3,4-f]isoindole-1,3(2H,5H)-dione], for which the DC50 is over 0.1 µM.
On to `O=C1CCC(N2C(=O)c3cc4c(cc3C2=O)CN(CC(=O)N2CC3(CCC(Oc5ccc([C@@H]6c7ccc(O)cc7CC[C@@H]6c6ccccc6)cc5)CC3)C2)C4)C(=O)N1` (stereo partly drawn) [E 223, 2-(2,6-dioxopiperidin-3-yl)-6-(2-(7-(4-((1R,2S)-6-hydroxy-2-phenyl-1,2,3,4-tetrahydronaphthalen-1-yl)phenoxy)-2-azaspiro[3.5]nonan-2-yl)-2-oxoethyl)-6,7-dihydropyrrolo[3,4-f]isoindole-1,3(2H,5H)-dione], for which the DC50 is over 0.1 µM.
As to `O=C1CCC(N2C(=O)c3cc4c(cc3C2=O)CN(C2CCN(C(=O)C3CCN(c5ccc([C@@H]6c7ccc(O)cc7CC[C@@H]6c6ccccc6)cc5)CC3)CC2)C4)C(=O)N1` (mixture of isomers) [E 13, Rac-2-(2,6-dioxopiperidin-3-yl)-6-(1-(1-(4-((1R,2S)-6-hydroxy-2-phenyl-1,2,3,4-tetrahydronaphthalen-1-yl)phenyl)piperidine-4-carbonyl)pi570 peridin-4-yl)-6,7-dihydropyrrolo[3,4-f]isoindole-1,3(2H,5H)-dione], the DC50 was under 0.01 µM.
Consider `O=C1CCC(N2C(=O)c3cc4c(cc3C2=O)CN(C(=O)CN2CCC[C@H](Oc3ccc([C@@H]5c6ccc(O)cc6CC[C@@H]5c5ccc(F)cc5)cc3)C2)C4)C(=O)N1` (mixture of isomers) [E 159, Rac-2-(2,6-dioxopiperidin-3-yl)-6-(2-((S)-3-(4-((1R,2S)-2-(4-fluorophenyl)-6-hydroxy-1,2,3,4-tetrahydronaphthalen-1-yl)phenoxy)piperidin-1-yl)acetyl)-6,7-dihydropyrrolo[3,4-f]isoindole-1,3(2H,5H)-dione], for which the DC50 is over 0.1 µM.

The same assay, now with this note: compounds 16 hours, Table A does not say whether T47D or MCF7, read-out: Potency (DC50).
`C[C@@H]1Cc2cc(O)ccc2[C@@H](c2c(F)cc(C(=O)N3CC4(CCN(C(=O)CN5Cc6cc7c(cc6C5)C(=O)N(C5CCC(=O)NC5=O)C7=O)CC4)C3)cc2F)N1CC(F)F` (stereo partly drawn) [E 457, 6-(2-(2-(4-((1S,3R)-2-(2,2-difluoroethyl)-6-hydroxy-3-methyl-1,2,3,4-tetrahydroisoquinolin-1-yl)-3,5-difluorobenzoyl)-2,7-diazaspiro[3.5]nonan-7-yl)-2-oxoethyl)-2-(2,6-dioxopiperidin-3-yl)-6,7-dihydropyrrolo[3,4-f]isoindole-1,3(2H,5H)-dione]: the DC50 lay within 0.01 to 0.1 µM.
